# Source: patent US5328902A, “7-(substituted)-9-[(substituted glycyl)amido]-6-demethyl-6-deoxytetracyclines” (American Cyanamid Co., priority 1992, dated 1994)
# How the values were obtained:
# Type in all cases: cell-based
# [1] = test system: S. aureus ATCC 29213; experiment: MIC, agar dilution; details: S. aureus ATCC 29213
# [2] = test system: E. coli UBMS 90-4 Tet M; experiment: microbe, parasite or virus in culture; details: E. coli UBMS 90-4 Tet M
# [3] = test system: S. aureus UBMS 90-2 Tet M; experiment: microbe, parasite or virus in culture; details: S. aureus UBMS 90-2 Tet M
# [4] = test system: S. aureus IVES 2943; experiment: MIC, agar dilution; details: S. aureus IVES 2943
# [5] = test system: E. coli ATCC 25922; experiment: MIC, agar dilution; details: E. coli ATCC 25922
# [6] = test system: S. aureus UBMS 88-7 Tet K; experiment: microbe, parasite or virus in culture; details: S. aureus UBMS 88-7 Tet K
# [7] = test system: E. coli #311 (MP); experiment: MIC, agar dilution; details: E. coli #311 (MP)
# [8] = test system: X. maltophilia NEMC 87210; experiment: MIC, agar dilution
# [9] = test system: S. mariescens FPOR 8733; experiment: MIC, agar dilution
# [10] = test system: S. aureus UBMS 90-1 Tet M; experiment: microbe, parasite or virus in culture; details: S. aureus UBMS 90-1 Tet M
# [11] = test system: E. coli MC 4100 Tet sens.; experiment: MIC, agar dilution
# [12] = test system: S. aureus SMITH (MP); experiment: MIC, agar dilution; details: S. aureus SMITH (MP)
# [13] = test system: S. aureus NEMC 8769; experiment: MIC, agar dilution; details: S. aureus NEMC 8769
# [14] = test system: S. aureus UBMS 90-3; experiment: MIC, agar dilution; details: S. aureus UBMS 90-3
# [15] = test system: E. coli UBMS 89-2 Tet sens.; experiment: MIC, agar dilution; details: E. coli UBMS 89-2 Tet sens.
# [16] = test system: Enterococcus 12201; experiment: MIC, agar dilution; details: Enterococcus 12201
# [17] = test system: S. aureus UBMS 88-5 Tet M; experiment: microbe, parasite or virus in culture; details: S. aureus UBMS 88-5 Tet M
# [18] = test system: E. coli MC 4100 TNIOC Tet B; experiment: microbe, parasite or virus in culture; details: E. coli MC 4100 TNIOC Tet B
# [19] = test system: S. aureus UBMS 88-4; experiment: MIC, agar dilution; details: S. aureus UBMS 88-4
# [20] = test system: E. faecalis ATCC 29212; experiment: MIC, agar dilution; details: E. faecalis ATCC 29212
# [21] = test system: E. coli J3272 Tet D; experiment: microbe, parasite or virus in culture; details: E. coli J3272 Tet D
# [22] = test system: S. aureus IVES 1 983; experiment: MIC, agar dilution; details: S. aureus IVES 1 983
# [23] = test system: E. coli J3272 Tet C; experiment: microbe, parasite or virus in culture; details: E. coli J3272 Tet C
# [24] = test system: E. coli UBMS 89-1 Tet M; experiment: microbe, parasite or virus in culture; details: E. coli UBMS 89-1 Tet M
# [25] = test system: Ps. acruginosa ATCC 27853; experiment: MIC, agar dilution; details: Ps. acruginosa ATCC 27853
# [26] = test system: E. coli UBMS 88-1 Tet B; experiment: microbe, parasite or virus in culture; details: E. coli UBMS 88-1 Tet B; 18 hours at 35° C.
# [27] = test system: E. coli PRP1 Tet A; experiment: microbe, parasite or virus in culture; details: E. coli PRP1 Tet A
# [28] = test system: S. aureus ROSE (MP); experiment: MIC, agar dilution; details: S. aureus ROSE (MP)
# [29] = test system: E. coli BAJ9003 IMP MUT; experiment: microbe, parasite or virus in culture; details: E. coli BAJ9003 IMP MUT
# [30] = test system: E. coli J2175; experiment: MIC, agar dilution; details: E. coli J2175
# [31] = test system: S. hemolyticus AVHAH 88-3; experiment: MIC, agar dilution; details: S. hemolyticus AVHAH 88-3
# [32] = test system: E. coli UBMS 90-5; experiment: MIC, agar dilution
Structure (SMILES),MIC [1],MIC [2],MIC [3],MIC [4],MIC [5],MIC [6],MIC [7],MIC [8],MIC [9],MIC [10],MIC [11],MIC [12],MIC [13],MIC [14],MIC [15],MIC [16],MIC [17],MIC [18],MIC [19],MIC [20],further results
"C#CCN(C)CC(=O)Nc1cc(N(C)C)c2c(c1O)C(=O)C1=C(O)[C@]3(O)C(=O)C(C(N)=O)=C(O)[C@@H](N(C)C)[C@@H]3C[C@@H]1C2 [V, [4S-(4alpha,12aalpha)]-4,7-Bis(dimethylamino)-1,4,4a,5,5a,6,11,12a-octahydro-3,10, 12,12a-tetrahydroxy-9-[[[methyl-2-propynylamino]acetyl]amino]-1,11-dioxo-2-naphthacenecarboxamide]",4 µg/mL,> 32 µg/mL,8 µg/mL,> 32 µg/mL,> 32 µg/mL,32 µg/mL,> 32 µg/mL,32 µg/mL,> 32 µg/mL,16 µg/mL,32 µg/mL,4 µg/mL,4 µg/mL,4 µg/mL,> 32 µg/mL,8 µg/mL,8 µg/mL,> 32 µg/mL,4 µg/mL,4 µg/mL,MIC [21]: > 32 µg/mL; MIC [22]: > 32 µg/mL; MIC [23]: > 32 µg/mL; MIC [24]: > 32 µg/mL; MIC [25]: > 32 µg/mL; MIC [26]: > 32 µg/mL; MIC [27]: > 32 µg/mL; MIC [28]: > 32 µg/mL; MIC [29]: 4 µg/mL; MIC [30]: > 32 µg/mL; MIC [31]: 32 µg/mL; MIC [32]: > 32 µg/mL
"CN(C)c1cc(NC(=O)CNN2CCCCC2)c(O)c2c1CC1CC3C(N(C)C)C(O)=C(C(N)=O)C(=O)C3(O)C(O)=C1C2=O (stereo not drawn) [W, [4S-(4alpha,12aalpha)]-4,7-Bis(dimethylamino)-1,4,4a,5,5a,6,11,12a-octahydro-3,10, 12,12a-tetrahydroxy-hydroxy-1,11-dioxo-9[[(1-piperidinylamino)acetyl]amino]-2naphthacenecarboxamide]",32 µg/mL,> 32 µg/mL,> 32 µg/mL,> 32 µg/mL,> 32 µg/mL,> 32 µg/mL,> 32 µg/mL,> 32 µg/mL,> 32 µg/mL,> 32 µg/mL,32 µg/mL,16 µg/mL,> 32 µg/mL,16 µg/mL,> 32 µg/mL,> 32 µg/mL,> 32 µg/mL,> 32 µg/mL,> 32 µg/mL,> 32 µg/mL,MIC [21]: > 32 µg/mL; MIC [22]: > 32 µg/mL; MIC [23]: > 32 µg/mL; MIC [24]: > 32 µg/mL; MIC [25]: > 32 µg/mL; MIC [26]: > 32 µg/mL; MIC [27]: > 32 µg/mL; MIC [28]: > 32 µg/mL; MIC [29]: 16 µg/mL; MIC [30]: > 32 µg/mL; MIC [31]: > 32 µg/mL; MIC [32]: > 32 µg/mL
